Laboratory results from publication PMC9574867, “Discovery and Characterization of Synthesized and FDA-Approved Inhibitors of Clostridial and Bacillary Collagenases” (Journal of Medicinal Chemistry, 2022).
“Also recorded” adds a separate entry of the source.

Columns and labels:
ColH-PD [1] = target: T1, ColH-PD (Hathewaya histolytica, UniProt Q46085); assay: biochemical; type: biochemical, C. histolyticum; conditions: 100 μM; read-out: Percent inhibition of ColH-PD
ColG-CU [2] = target: T2, ColG-CU (Hathewaya histolytica, UniProt Q9X721); assay: biochemical; type: biochemical, C. histolyticum; conditions: 100 μM; read-out: Percent inhibition of ColG-CU
T2 sequence (Q9X721 111-786): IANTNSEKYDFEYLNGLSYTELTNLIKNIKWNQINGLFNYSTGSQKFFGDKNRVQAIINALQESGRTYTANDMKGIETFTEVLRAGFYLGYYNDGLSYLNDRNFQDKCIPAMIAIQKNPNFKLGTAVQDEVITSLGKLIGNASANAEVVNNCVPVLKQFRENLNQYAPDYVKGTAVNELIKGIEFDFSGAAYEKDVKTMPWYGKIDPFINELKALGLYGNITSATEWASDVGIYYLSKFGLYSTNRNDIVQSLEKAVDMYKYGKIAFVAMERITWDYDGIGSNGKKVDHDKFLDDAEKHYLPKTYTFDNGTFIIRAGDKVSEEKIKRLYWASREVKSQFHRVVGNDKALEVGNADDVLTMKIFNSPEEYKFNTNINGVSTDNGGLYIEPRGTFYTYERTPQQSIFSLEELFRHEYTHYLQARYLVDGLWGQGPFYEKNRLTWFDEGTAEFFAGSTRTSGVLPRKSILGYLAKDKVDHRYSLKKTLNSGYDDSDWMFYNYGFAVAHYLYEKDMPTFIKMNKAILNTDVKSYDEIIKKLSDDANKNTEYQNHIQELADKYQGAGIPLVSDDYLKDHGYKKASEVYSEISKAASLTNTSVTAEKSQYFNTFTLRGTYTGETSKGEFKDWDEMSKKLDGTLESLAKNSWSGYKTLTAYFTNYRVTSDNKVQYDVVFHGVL

COX-1 = COX-1 (Homo sapiens, UniProt P23219); assay: Human off-target inhibition, COX-1; type: biochemical
Chain of COX-1 (P23219 24-599): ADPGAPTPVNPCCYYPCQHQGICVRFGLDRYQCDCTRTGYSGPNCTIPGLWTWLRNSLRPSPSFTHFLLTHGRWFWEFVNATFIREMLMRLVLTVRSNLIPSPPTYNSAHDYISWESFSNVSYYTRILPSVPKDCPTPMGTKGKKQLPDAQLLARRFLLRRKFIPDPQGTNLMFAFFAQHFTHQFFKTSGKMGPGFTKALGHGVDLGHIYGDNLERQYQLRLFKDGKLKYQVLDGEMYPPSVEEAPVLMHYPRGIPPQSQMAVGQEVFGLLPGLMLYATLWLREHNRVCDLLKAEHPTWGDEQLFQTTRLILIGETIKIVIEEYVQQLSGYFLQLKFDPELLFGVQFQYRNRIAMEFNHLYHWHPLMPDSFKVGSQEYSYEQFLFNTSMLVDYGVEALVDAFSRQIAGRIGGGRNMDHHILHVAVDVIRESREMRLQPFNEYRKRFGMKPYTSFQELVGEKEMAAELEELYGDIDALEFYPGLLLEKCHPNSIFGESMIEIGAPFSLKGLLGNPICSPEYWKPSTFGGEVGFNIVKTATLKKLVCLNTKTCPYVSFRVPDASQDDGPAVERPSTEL
Protocol: To assess the selectivity of the compounds over human MMPs and on other bacterial collagenases, selected compounds were tested against ColG-CU and ColH-PD from C. histolyticum and ColA-CU from B. cereus strain ATCC14579. In addition, the compounds were tested on catalytic domains of three human MMPs, which are characterized by different depths of the S1′ binding pocket (MMP-1 (shallow), −2 (intermediate), and −3 (deep)). They were also tested against other important human off-targets, which are involved in gene expression and the processing of TNF-α; these include HDAC-3, -8, TACE (ADAM-17),[33],[34] and COX-1.

[3] = test system: B. cereus collagenases released in the NHDF infection model; type: cell-based, B. cereus AH187
[4] = test system: NHDF cells infected with B. cereus; assay: NHDF infection model, cell morphology/attachment and fibrillar collagen (picrosirius red); type: cell-based, human; conditions: B. cereus infection, 5 h
[5] = test system: NHDF cells infected with B. cereus; assay: NHDF infection model, LDH release; type: cell-based, human; conditions: 5 h
Protocol: We further evaluated the effect of the diphosphonate and hydroxamate compounds on cell morphology, the fibrillar collagen content of the ECM, and cell viability in the infection model. […] Above a concentration of 25 μM, they were both able to sustain the cells during infection. The cells stayed attached and maintained their spindle shape (Figures S7 and S8), and above 50 μM, we observed a significant reduction in LDH release, indicating higher cell viability.
NHDF cells (1 × 10^5, Promo Cell C-12302) per well were seeded in 24-well plates (Greiner) with DMEM medium (Gibco) containing 10% (v/v) fetal calf serum (FCS, Gibco) and 1% (v/v) glutamine (Gibco). Prior to the treatment, the cells were cultured at 37 °C for 24 h with 5% CO2. In brain heart infusion (BHI) medium, B. cereus AH187 bacteria were cultivated to a mid-exponential phase. The culture was centrifuged at 4000g for 7 min at RT before being rinsed and diluted in PBS. […] The cell morphology was monitored with a light microscope (Olympus) using a 20X objective. […]
The manufacturer’s procedure was followed to measure the released LDH amount in the supernatant of NHDF cells. […] The absorbance was measured at 490 nm with a Tecan Infinite M200 plate reader (Tecan, Grödig, Austria). The cytotoxicity was calculated relative to the control (no inhibitor).

[6] = test system: MDCK II cells infected with B. cereus AH187; type: cell-based, canine
ColQ1-CU [7] = target: T3, ColQ1-CU (Bacillus cereus, UniProt B9J3S4); type: biochemical, B. cereus
T3 sequence (B9J3S4 94-765 limits assumed): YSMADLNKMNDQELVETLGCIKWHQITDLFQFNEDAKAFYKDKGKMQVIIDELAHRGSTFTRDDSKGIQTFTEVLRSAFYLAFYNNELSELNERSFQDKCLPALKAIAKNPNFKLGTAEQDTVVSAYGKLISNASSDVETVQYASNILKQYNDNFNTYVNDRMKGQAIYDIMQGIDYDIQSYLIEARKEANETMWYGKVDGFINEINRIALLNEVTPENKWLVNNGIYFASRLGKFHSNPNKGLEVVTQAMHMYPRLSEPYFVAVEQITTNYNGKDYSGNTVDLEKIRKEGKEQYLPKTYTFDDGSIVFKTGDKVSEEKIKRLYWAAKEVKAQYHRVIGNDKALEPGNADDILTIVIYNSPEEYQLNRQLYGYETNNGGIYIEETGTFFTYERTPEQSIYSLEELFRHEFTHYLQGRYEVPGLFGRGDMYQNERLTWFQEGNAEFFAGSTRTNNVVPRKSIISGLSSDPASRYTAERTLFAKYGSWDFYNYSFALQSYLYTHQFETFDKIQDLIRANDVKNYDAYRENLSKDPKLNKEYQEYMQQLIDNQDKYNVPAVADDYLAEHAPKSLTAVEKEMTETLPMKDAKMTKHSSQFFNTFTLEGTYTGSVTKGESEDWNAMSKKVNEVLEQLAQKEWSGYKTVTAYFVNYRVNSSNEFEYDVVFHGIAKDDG

ColA-CU = ColA-CU (Bacillus cereus, UniProt Q81BJ6); type: biochemical, B. cereus; conditions: rapid dilution
Chain of ColA-CU (Q81BJ6 93-764): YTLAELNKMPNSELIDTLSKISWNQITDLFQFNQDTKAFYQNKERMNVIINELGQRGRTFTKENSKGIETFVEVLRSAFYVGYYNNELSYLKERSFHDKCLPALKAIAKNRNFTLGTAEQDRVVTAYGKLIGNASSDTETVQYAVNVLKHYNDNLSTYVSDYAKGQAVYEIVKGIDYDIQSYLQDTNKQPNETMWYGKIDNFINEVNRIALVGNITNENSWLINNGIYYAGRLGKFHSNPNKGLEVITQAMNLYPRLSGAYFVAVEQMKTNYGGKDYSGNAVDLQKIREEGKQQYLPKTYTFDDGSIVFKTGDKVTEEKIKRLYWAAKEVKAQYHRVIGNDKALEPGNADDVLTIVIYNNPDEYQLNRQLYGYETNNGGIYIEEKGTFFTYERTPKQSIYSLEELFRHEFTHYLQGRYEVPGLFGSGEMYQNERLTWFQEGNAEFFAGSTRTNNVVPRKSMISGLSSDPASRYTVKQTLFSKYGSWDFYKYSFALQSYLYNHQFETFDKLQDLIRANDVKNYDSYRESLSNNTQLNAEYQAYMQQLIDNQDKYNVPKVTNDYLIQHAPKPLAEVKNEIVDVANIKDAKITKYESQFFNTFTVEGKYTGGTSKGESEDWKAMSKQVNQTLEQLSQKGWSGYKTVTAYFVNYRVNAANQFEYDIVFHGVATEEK

ColH-PD [8] = target: T1, ColH-PD; type: biochemical, C. histolyticum
ColG-CU [9] = target: T2, ColG-CU; type: biochemical, C. histolyticum; conditions: rapid dilution
ColQ1-CU [10] = target: T3, ColQ1-CU; type: binding, B. cereus; conditions: intact protein HPLC-MS, overnight treatment
in vitro = conditions: dog, MDCK II cells (Madin–Darby canine kidney II)
[11] = test system: Galleria mellonella larvae; assay: Galleria mellonella larvae treated with compound only in PBS; type: in vivo; conditions: no bacteria
Protocol: Figure 8 Survival analysis of Galleria mellonella larvae treated with Bacillus cereus AH187 with and without 14 and tiludronate disodium. Each curve represents results of three independent experiments; the statistical difference between groups treated with 100, 50, and 25 μM of compound 14 and B. cereus AH187 and with the group treated only with B. cereus AH187 is p < 0.0001, p = 0.0039, and p = 0.0173, respectively. The statistical difference between groups treated with 100 μM tiludronate disodium and with B. cereus AH187 is p = 0.0032 (log-rank test). The survival rate for the larvae treated with compound 14 and tiludronate disodium in PBS was 100%.
G. mellonella larvae were purchased from a fishing store. Injections were carried out using an LA120 syringe pump (Landgraf Laborsysteme, Langenhagen, Germany) equipped with 1 mL Injekt-F tuberculin syringes (B. Braun, Melsungen, Germany) and Sterican 0.30 × […], 30 G × 1.5 needles (B. Braun). The larvae were divided into five groups depending on their treatment: (i) sterile PBS, (ii) no injection, (iii) only compound, (iv) BC AH187 bacterial suspension, and (v) BC AH187 bacterial suspension with compound. Larvae were incubated at 37 °C for 3 days and inspected twice daily. The total larvae used in all three experiments were 40 larvae per group.

T1 sequence (Q46085 331-721 limits assumed): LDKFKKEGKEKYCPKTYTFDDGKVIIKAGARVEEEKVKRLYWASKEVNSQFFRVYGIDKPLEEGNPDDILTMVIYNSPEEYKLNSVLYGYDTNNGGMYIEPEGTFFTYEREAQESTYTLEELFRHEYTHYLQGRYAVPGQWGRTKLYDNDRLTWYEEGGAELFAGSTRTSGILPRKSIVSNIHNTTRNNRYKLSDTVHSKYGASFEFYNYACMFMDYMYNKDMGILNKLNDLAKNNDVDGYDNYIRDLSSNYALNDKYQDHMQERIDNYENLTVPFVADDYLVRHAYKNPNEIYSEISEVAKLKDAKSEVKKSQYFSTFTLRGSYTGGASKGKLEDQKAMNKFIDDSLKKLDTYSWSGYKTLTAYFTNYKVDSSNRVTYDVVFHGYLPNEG

Structure (SMILES)	inhibition at 100 µM (ColH-PD [1]) [%]	inhibition at 100 µM (ColG-CU [2]) [%]	IC50 (COX-1) [µM]	Concentration giving complete inhibition of gelatinolytic activity [3] [µM]	Concentration above which infected cells were sustained (attached, spindle shape) [4] [µM]	Concentration above which LDH release was significantly reduced [5]	TEER of infected MDCK II cells [6]	Residual activity after rapid dilution (ColQ1-CU [7]; 30 min preincubation at 10-fold IC50, 100-fold dilution)	Reversibility of inhibition, ColQ1-CU (ColQ1-CU [7]; rapid dilution)	Reversibility of inhibition, ColA-CU (ColA-CU)	Reversibility of inhibition, ColH (ColH-PD [8])	Reversibility of inhibition, ColG (ColG-CU [9])	Covalent modification of ColQ1-CU (ColQ1-CU [10])	IC50 (in vitro) [µM]	Survival rate of larvae treated with compound in PBS [11] [%]
O=P(O)(O)c1nc2cc(Cl)c(Cl)cc2nc1P(=O)(O)O [Compound 13, (6,7-Dichloroquinoxaline-2,3-diyl)bis(phosphonic acid)]	83 ± 9	68 ± 4	> 100	200	> 25	above 50 μM	failed to sustain the TEER of the infected cells	less than 9%	very slowly dissociating reversible binder	only a minimal inhibition	reversed compared to ColA	rapidly reversible inhibitors	No molecular masses displayed a mass shift indicating a covalently bound inhibitor; also recorded: did not result in a covalent modification	> 200	–
O=C(Nc1ccc(Cl)c(Cl)c1)c1ccc2nc(P(=O)(O)O)c(P(=O)(O)O)nc2c1 [Compound 14, (6-((3,4-Dichlorophenyl)carbamoyl)quinoxaline-2,3-diyl)bis(phosphonic acid)]	96 ± 2	72 ± 3	> 100	100	> 25	above 50 μM	preserve the TEER value	–	–	–	–	–	–	> 100	100
